Species: Rattus norvegicus
Assay: DrugMatrix - Regimen: Daily Repeat
Format: toxicity, organism-based, Sprague-Dawley
Parameters: regimen Daily Repeat, gender Male, age 6-8 weeks
Conditions: in vivo, po, route oral GAVAGE, vehicle .5 % CMC; for BASOPHIL / EOSINOPHIL / ERYTHROCYTE COUNT / HEMATOCRIT / HEMOGLOBIN / LEUKOCYTE COUNT / LYMPHOCYTE / MEAN CORPUSCULAR HEMOGLOBIN / MEAN CORPUSCULAR HEMOGLOBIN CONCENTRATION / MEAN CORPUSCULAR VOLUME / MONOCYTE / NEUTROPHIL / PLATELET COUNT: tissue Blood; for ALANINE AMINOTRANSFERASE / ALBUMIN / ALKALINE PHOSPHATASE / ASPARTATE AMINOTRANSFERASE / BLOOD UREA NITROGEN / CHLORIDE / CHOLESTEROL / CREATINE PHOSPHOKINASE / CREATININE / GLUCOSE / PHOSPHORUS / SODIUM / TOTAL PROTEIN: tissue Plasma
[1] = 0 mg/kg, 72 h, dose level Control, time 3 day
[2] = 0 mg/kg, 120 h, dose level Control, time 5 day
[3] = 10 mg/kg, 72 h, dose level Low, time 3 day
[4] = 10 mg/kg, 120 h, dose level Low, time 5 day
[5] = 2000 mg/kg, 72 h, dose level High, time 3 day
[6] = 2000 mg/kg, 120 h, dose level High, time 5 day

Structure (SMILES): CCn1cc(C(=O)O)c(=O)c2cc(F)c(N3CCNC(C)C3)c(F)c21 (stereo unspecified) [LOMEFLOXACIN]
- BASOPHIL [1]: 0%
- EOSINOPHIL [1]: 0.4%
- ERYTHROCYTE COUNT [1]: 6.43 x10E6/uL
- HEMATOCRIT [1]: 37.36%
- HEMOGLOBIN [1]: 13.98 G/DL
- LEUKOCYTE COUNT [1]: 13 x10E3/uL
- LYMPHOCYTE [1]: 81.4%
- MEAN CORPUSCULAR HEMOGLOBIN [1]: 21.9 pg
- MEAN CORPUSCULAR HEMOGLOBIN CONCENTRATION [1]: 37.4 G/DL
- MEAN CORPUSCULAR VOLUME [1]: 58.52 fL
- MONOCYTE [1]: 0.4%
- NEUTROPHIL [1]: 18%
- PLATELET COUNT [1]: 1386 x10E3/uL
- ALANINE AMINOTRANSFERASE [1]: 39.33 u/L
- ALBUMIN [1]: 3.57 G/DL
- ALKALINE PHOSPHATASE [1]: 283.83 u/L
- ASPARTATE AMINOTRANSFERASE [1]: 69.5 u/L
- BLOOD UREA NITROGEN [1]: 14.83 mg/dL
- CHLORIDE [1]: 107.33 MEQ/L
- CHOLESTEROL [1]: 75.17 mg/dL
- CREATINE PHOSPHOKINASE [1]: 107.67 u/L
- CREATININE [1]: 0.48 mg/dL
- GLUCOSE [1]: 172.5 mg/dL
- PHOSPHORUS [1]: 10.48 mg/dL
- SODIUM [1]: 152.33 MEQ/L
- TOTAL PROTEIN [1]: 5.9 G/DL
- BASOPHIL [2]: 0%
- EOSINOPHIL [2]: 0.4%
- ERYTHROCYTE COUNT [2]: 6.96 x10E6/uL
- HEMATOCRIT [2]: 41.12%
- HEMOGLOBIN [2]: 15.24 G/DL
- LEUKOCYTE COUNT [2]: 11.06 x10E3/uL
- LYMPHOCYTE [2]: 88.6%
- MEAN CORPUSCULAR HEMOGLOBIN [2]: 21.96 pg
- MEAN CORPUSCULAR HEMOGLOBIN CONCENTRATION [2]: 37.1 G/DL
- MEAN CORPUSCULAR VOLUME [2]: 59.12 fL
- MONOCYTE [2]: 0.2%
- NEUTROPHIL [2]: 10.8%
- PLATELET COUNT [2]: 1155.8 x10E3/uL
- ALANINE AMINOTRANSFERASE [2]: 36.33 u/L
- ALBUMIN [2]: 3.72 G/DL
- ALKALINE PHOSPHATASE [2]: 340.33 u/L
- ASPARTATE AMINOTRANSFERASE [2]: 68.33 u/L
- BLOOD UREA NITROGEN [2]: 15 mg/dL
- CHLORIDE [2]: 108.17 MEQ/L
- CHOLESTEROL [2]: 74.67 mg/dL
- CREATINE PHOSPHOKINASE [2]: 110.67 u/L
- CREATININE [2]: 0.47 mg/dL
- GLUCOSE [2]: 171.33 mg/dL
- PHOSPHORUS [2]: 10.05 mg/dL
- SODIUM [2]: 155.5 MEQ/L
- TOTAL PROTEIN [2]: 6.33 G/DL
- BASOPHIL [3]: 0%
- EOSINOPHIL [3]: 0.33%
- ERYTHROCYTE COUNT [3]: 6.14 x10E6/uL
- HEMATOCRIT [3]: 37.73%
- HEMOGLOBIN [3]: 14.37 G/DL
- LEUKOCYTE COUNT [3]: 14.47 x10E3/uL
- LYMPHOCYTE [3]: 89.33%
- MEAN CORPUSCULAR HEMOGLOBIN [3]: 23.47 pg
- MEAN CORPUSCULAR HEMOGLOBIN CONCENTRATION [3]: 38.1 G/DL
- MEAN CORPUSCULAR VOLUME [3]: 61.53 fL
- MONOCYTE [3]: 0%
- NEUTROPHIL [3]: 10.33%
- PLATELET COUNT [3]: 1193.33 x10E3/uL
- ALANINE AMINOTRANSFERASE [3]: 39 u/L
- ALBUMIN [3]: 3.37 G/DL
- ALKALINE PHOSPHATASE [3]: 307 u/L
- ASPARTATE AMINOTRANSFERASE [3]: 60.67 u/L
- BLOOD UREA NITROGEN [3]: 11.33 mg/dL
- CHLORIDE [3]: 106.67 MEQ/L
- CHOLESTEROL [3]: 65.33 mg/dL
- CREATINE PHOSPHOKINASE [3]: 106 u/L
- CREATININE [3]: 0.53 mg/dL
- GLUCOSE [3]: 175.33 mg/dL
- PHOSPHORUS [3]: 12.17 mg/dL
- SODIUM [3]: 151.67 MEQ/L
- TOTAL PROTEIN [3]: 5.53 G/DL
- BASOPHIL [4]: 0%
- EOSINOPHIL [4]: 0%
- ERYTHROCYTE COUNT [4]: 6.95 x10E6/uL
- HEMATOCRIT [4]: 41.1%
- HEMOGLOBIN [4]: 15.1 G/DL
- LEUKOCYTE COUNT [4]: 16.87 x10E3/uL
- LYMPHOCYTE [4]: 90.67%
- MEAN CORPUSCULAR HEMOGLOBIN [4]: 21.77 pg
- MEAN CORPUSCULAR HEMOGLOBIN CONCENTRATION [4]: 36.73 G/DL
- MEAN CORPUSCULAR VOLUME [4]: 59.17 fL
- MONOCYTE [4]: 0.33%
- NEUTROPHIL [4]: 9%
- PLATELET COUNT [4]: 1212.33 x10E3/uL
- ALANINE AMINOTRANSFERASE [4]: 46.33 u/L
- ALBUMIN [4]: 3.43 G/DL
- ALKALINE PHOSPHATASE [4]: 276.33 u/L
- ASPARTATE AMINOTRANSFERASE [4]: 68 u/L
- BLOOD UREA NITROGEN [4]: 13.67 mg/dL
- CHLORIDE [4]: 105 MEQ/L
- CHOLESTEROL [4]: 70 mg/dL
- CREATINE PHOSPHOKINASE [4]: 104.33 u/L
- CREATININE [4]: 0.57 mg/dL
- GLUCOSE [4]: 159.33 mg/dL
- PHOSPHORUS [4]: 10.67 mg/dL
- SODIUM [4]: 151.67 MEQ/L
- TOTAL PROTEIN [4]: 5.7 G/DL
- BASOPHIL [5]: 0%
- EOSINOPHIL [5]: 0%
- ERYTHROCYTE COUNT [5]: 6.7 x10E6/uL
- HEMATOCRIT [5]: 41%
- HEMOGLOBIN [5]: 15.63 G/DL
- LEUKOCYTE COUNT [5]: 12.43 x10E3/uL
- LYMPHOCYTE [5]: 83%
- MEAN CORPUSCULAR HEMOGLOBIN [5]: 23.33 pg
- MEAN CORPUSCULAR HEMOGLOBIN CONCENTRATION [5]: 38.17 G/DL
- MEAN CORPUSCULAR VOLUME [5]: 61.2 fL
- MONOCYTE [5]: 0.33%
- NEUTROPHIL [5]: 16.67%
- PLATELET COUNT [5]: 1479.67 x10E3/uL
- ALANINE AMINOTRANSFERASE [5]: 32 u/L
- ALBUMIN [5]: 3.53 G/DL
- ALKALINE PHOSPHATASE [5]: 214.33 u/L
- ASPARTATE AMINOTRANSFERASE [5]: 57.67 u/L
- BLOOD UREA NITROGEN [5]: 19 mg/dL
- CHLORIDE [5]: 103.33 MEQ/L
- CHOLESTEROL [5]: 62.67 mg/dL
- CREATINE PHOSPHOKINASE [5]: 126 u/L
- CREATININE [5]: 0.67 mg/dL
- GLUCOSE [5]: 129.33 mg/dL
- PHOSPHORUS [5]: 11.57 mg/dL
- SODIUM [5]: 149.33 MEQ/L
- TOTAL PROTEIN [5]: 5.93 G/DL
- BASOPHIL [6]: 0%
- EOSINOPHIL [6]: 0%
- ERYTHROCYTE COUNT [6]: 6.87 x10E6/uL
- HEMATOCRIT [6]: 40.23%
- HEMOGLOBIN [6]: 15.07 G/DL
- LEUKOCYTE COUNT [6]: 19.9 x10E3/uL
- LYMPHOCYTE [6]: 96.33%
- MEAN CORPUSCULAR HEMOGLOBIN [6]: 21.93 pg
- MEAN CORPUSCULAR HEMOGLOBIN CONCENTRATION [6]: 37.47 G/DL
- MEAN CORPUSCULAR VOLUME [6]: 58.57 fL
- MONOCYTE [6]: 0%
- NEUTROPHIL [6]: 3.67%
- PLATELET COUNT [6]: 1396 x10E3/uL
- ALANINE AMINOTRANSFERASE [6]: 40.67 u/L
- ALBUMIN [6]: 3.47 G/DL
- ALKALINE PHOSPHATASE [6]: 183 u/L
- ASPARTATE AMINOTRANSFERASE [6]: 56.33 u/L
- BLOOD UREA NITROGEN [6]: 13.33 mg/dL
- CHLORIDE [6]: 106 MEQ/L
- CHOLESTEROL [6]: 63 mg/dL
- CREATINE PHOSPHOKINASE [6]: 125.67 u/L
- CREATININE [6]: 0.5 mg/dL
- GLUCOSE [6]: 154.67 mg/dL
- PHOSPHORUS [6]: 10.7 mg/dL
- SODIUM [6]: 152.33 MEQ/L
- TOTAL PROTEIN [6]: 5.8 G/DL
